Where “and” joins values, the source holds several entries; their conditions need not be identical. Equal entries are not always repeated.
Assays:
[1] = system: retinal neurons; test: Acute glaucoma in rats, retinal cell death; type: in vivo; details: acute glaucoma by raised intraocular pressure
From the text: When acute glaucoma is induced by increasing the pressure in an eye, the retina gets destroyed. In Example 10, acute glaucoma was induced in rats by increasing intraocular pressure by micro-injection of saline into the anterior chamber. This induces large amounts of apoptotic cell death in the retina. There are twice as many dead cells in high pressure retinas of rats treated with vehicle versus control untreated rats. Posiphen rescued 72% of the retinal neurons. The results are depicted in FIG. 23. Administration of Posiphen to those rats preserves the retina and protects the retinal cells from dying.

[2] = molecular target: T1, IRP1/APP RNA complex (Homo sapiens, UniProt P21399); test: MST binding of Posiphen to IRP1/APP RNA complex; details: IRP1/APP 2, 600 nM; Posiphen tartrate; read-out: Kd, binding of Posiphen to APP IRE/IRP1 complex
T1 sequence (P21399 1-889): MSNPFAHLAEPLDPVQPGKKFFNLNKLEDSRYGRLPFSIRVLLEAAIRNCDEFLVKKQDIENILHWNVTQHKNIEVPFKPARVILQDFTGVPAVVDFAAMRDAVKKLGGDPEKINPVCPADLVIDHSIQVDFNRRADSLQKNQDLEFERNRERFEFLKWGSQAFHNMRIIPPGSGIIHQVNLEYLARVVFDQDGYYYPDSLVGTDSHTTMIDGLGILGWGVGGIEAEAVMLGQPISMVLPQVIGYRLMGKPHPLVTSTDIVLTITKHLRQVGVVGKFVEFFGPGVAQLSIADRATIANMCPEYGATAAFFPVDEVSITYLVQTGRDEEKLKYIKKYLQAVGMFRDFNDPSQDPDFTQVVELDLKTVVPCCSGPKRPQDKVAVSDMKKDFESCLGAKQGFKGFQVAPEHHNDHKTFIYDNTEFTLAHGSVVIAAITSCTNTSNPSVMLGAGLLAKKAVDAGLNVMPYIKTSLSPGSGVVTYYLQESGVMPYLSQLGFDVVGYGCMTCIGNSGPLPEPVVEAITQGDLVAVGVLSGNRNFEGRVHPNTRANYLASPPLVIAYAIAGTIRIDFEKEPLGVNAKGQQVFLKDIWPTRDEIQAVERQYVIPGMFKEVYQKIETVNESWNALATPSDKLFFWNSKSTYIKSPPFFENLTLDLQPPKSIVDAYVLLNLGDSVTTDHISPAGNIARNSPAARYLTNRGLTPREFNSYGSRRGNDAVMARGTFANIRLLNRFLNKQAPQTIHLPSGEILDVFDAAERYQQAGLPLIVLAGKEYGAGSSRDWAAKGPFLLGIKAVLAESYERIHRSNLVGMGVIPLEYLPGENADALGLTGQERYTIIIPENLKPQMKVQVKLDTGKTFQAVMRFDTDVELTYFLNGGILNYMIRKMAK
Description: (§1) Microscale thermophoresis (MST) binding experiments were done to assess binding in vitro between the different components. MST binding experiments were performed by incubating N-termini labeled protein (2 nM) with serial 2-fold dilutions of IRE RNAs, H-Ferritin ([…]) or APP ([…]) for 10 min in incubation buffer (Tris pH 7.4, 0.5%, 15 mM NaCl and 0.1% Prionex). IPR-1 was N-termini labeled with RED-NHS amino reactive labeling kit (NanoTemper Technologies, Germany). For determination of Posiphen binding, reactions containing IPR1 (2 nM), IRP1/H-Ferritin (2, 250 nM), or IRP1/APP (2, 600 nM) were incubated for 10 min with 2-fold dilutions of Posiphen tartrate. After incubation, samples were centrifuged at 13,000 rpm for 2 minutes before being loaded into standard capillaries provided by the manufacturer. Fluorescence values from the binding reactions were determined using the Monolith NT.115 (Nano Temper Technologies). Kd values were using the NanoTemper Technologies software. Conditions were standardized.

[3] = system: aSYN; test: aSYN in enteric nervous system of transgenic PD mice; type: in vivo; details: PAC-Tg(SNCAA53T) mice, 21 weeks
Description: In Example 6, the effect of Posiphen on mice homozygous for the PAC-Tg(SNCAA53T) transgene was tested over the course of 21 weeks.

[4] = cited from earlier work
[5] = molecular target: T2, IRP1/H-Ferritin RNA complex (Homo sapiens, UniProt P21399); test: MST binding of Posiphen to IRP1/H-Ferritin RNA complex; details: IRP1/H-Ferritin 2, 250 nM; Posiphen tartrate
T2 sequence (P21399 1-889): T1 sequence (P21399 1-889)
Description: as §1

[6] = system: neurotoxic aggregating proteins; test: Translation of neurotoxic aggregating proteins in healthy mouse brain; type: in vivo
From the text: Therefore, the original data concerning the effects of Posiphen working under all conditions is wrong. It only works in stressed cells, dividing cells and sick cells, e.g., those cells that have high levels of iron.

[7] = system: SNCA; details: cited from earlier work
[8] = molecular target: T3, IRP1 (Homo sapiens, UniProt P21399); test: Microscale thermophoresis (MST) binding of IRE RNAs to IRP1; details: cell free, labeled IRP1 2 nM, without Posiphen; read-out: Kd of IRE RNA binding to IRP1
T3 sequence (P21399 1-889): T1 sequence (P21399 1-889)
Description: as §1

With `CN1CC[C@]2(C)c3cc(OC(=O)Nc4ccccc4)ccc3N(C)C12` (stereo partly drawn) [Posiphen, (3aR)-1,3a,8-trimethyl-1,2,3,3a,8,8a-hexahydropyrrolo[2,3-b]indol-5-ylphenylcarbamate] the retinal neurons rescued [1] was 72%, the Kd [2] was 3.2 nM and 3.22 nM and the “inhibition of aSYN in enteric nerves” value [3] was “about 40%”. The tolerability ([4]; doses up to 4×60 mg daily×10 days, humans) was “well tolerated”, the “terminal half-life in plasma” value ([4]; human, all doses) was 4.3 to 4.7 h and the “binding of Posiphen to the IRP1/H-Ferritin RNA complex” value [5] was “no binding”. For the same molecule, the “translation of neurotoxic aggregating proteins” value [6] was “does not inhibit”.
In the case of `C[C@]12CC[C@H]3[C@@H](CC[C@]4(O)C[C@@H](O)CC[C@]34C=O)[C@@]1(O)CC[C@@H]2C1=CC(=O)OC1` [strophanthidine], the “SNCA expression in neural cells, Western blotting” value [7] is listed as “selectively blocked”.
“APP: APP IRE RNA oligo GGUGGCGGCGCGGGCAGAGCAAGGACGCGGCGGAU (RNA, backbone not given here)” showed a Kd [8] of 225 nM.
“H-Ferritin: H-Ferritin IRE RNA oligo GGGGUUUCCUGCUUCAACAGUGCUUGGACGGAACC (RNA, backbone not given here)” gave a Kd [8] of 88.5 nM.

Source: patent US12390448B2, “Prevention or of disease states due to metal dis-homeostasis via administration of posiphen to healthy or sick humans” (ANNOVIS BIO, INC., priority 2017, dated 2025)
